Where two headings read alike, the source gives them in different places.
Tests used:
Assay type in all cases: biochemical
[1] = target: T1, PDGFRB (Homo sapiens, UniProt P09619); assay: Kinase inhibition assay (33P transfer), PDGFRB; settings: read-out: PDGFRB-1
T1 construct: Kinases are expressed as either kinase domains or full length constructs; made in house

[2] = target: T2, Hck-1 (Homo sapiens, UniProt P08631); assay: Kinase inhibition assay (33P transfer), Hck; settings: Table 6, Hck-1 kinase inhibition class
T2 construct: Kinases are expressed as either kinase domains or full length constructs; made in house

[3] = target: T3, Kdr (Homo sapiens, UniProt P35968); assay: Kinase inhibition assay (33P transfer), Kdr; settings: Table 3; read-out: KDR-1
T3 construct: Kinases are expressed as either kinase domains or full length constructs; made in house
How it was run: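 Recombinant kinase-domain or full-length fusion proteins (GST or His tag) served as enzyme. Substrate poly(Glu,Tyr) 4:1 or poly(Arg,Ser) 3:1 was bound to the plate; transferred 33P was read by liquid scintillation following acid washing.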

[4] = target: T4, FGFR1 (Homo sapiens, UniProt P11362); assay: Kinase inhibition assay (33P transfer), FGFR1; settings: read-out: FGFR1-1
T4 construct: Kinases are expressed as either kinase domains or full length constructs; made in house

[5] = target: T5, Fyn (Homo sapiens, UniProt P06241); assay: Kinase inhibition assay (33P transfer), Fyn; settings: read-out: Fyn-1
T5 construct: Kinases are expressed as either kinase domains or full length constructs; made in house
How it was run: (§1)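 Activity read as 33P incorporation from ATP into poly(Glu,Tyr) 4:1 or poly(Arg,Ser) 3:1 substrate bound to microtiter plates, measured by scintillation after acid washing. Enzymes were affinity-purified GST or polyHis fusions (kinase domain or full length) from E. coli or baculovirus; IC50 = 50% reduction in labelled phosphate.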

[6] = target: T6, Itk (Homo sapiens, UniProt Q08881); assay: Kinase inhibition assay (33P transfer), Itk; settings: Table 3; read-out: Itk-1
T6 construct: Kinases are expressed as either kinase domains or full length constructs; made in house
T6 sequence (Q08881 1-620): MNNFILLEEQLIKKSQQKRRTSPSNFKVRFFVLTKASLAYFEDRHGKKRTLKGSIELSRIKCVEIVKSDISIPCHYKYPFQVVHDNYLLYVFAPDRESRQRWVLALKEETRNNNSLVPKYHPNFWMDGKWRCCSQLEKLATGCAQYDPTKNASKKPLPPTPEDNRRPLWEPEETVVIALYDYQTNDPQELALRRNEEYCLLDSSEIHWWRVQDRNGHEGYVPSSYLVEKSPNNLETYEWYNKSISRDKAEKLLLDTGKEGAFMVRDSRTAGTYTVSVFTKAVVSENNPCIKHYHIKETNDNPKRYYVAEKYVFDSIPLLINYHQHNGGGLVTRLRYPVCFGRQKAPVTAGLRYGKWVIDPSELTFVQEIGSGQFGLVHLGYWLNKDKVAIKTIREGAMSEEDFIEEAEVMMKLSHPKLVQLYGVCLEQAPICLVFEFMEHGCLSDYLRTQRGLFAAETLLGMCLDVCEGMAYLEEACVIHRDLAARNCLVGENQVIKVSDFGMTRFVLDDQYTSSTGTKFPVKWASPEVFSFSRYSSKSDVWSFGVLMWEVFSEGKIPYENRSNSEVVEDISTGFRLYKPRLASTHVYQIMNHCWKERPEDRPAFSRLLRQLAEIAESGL
How it was run: as §1

[7] = target: T7, c-Met (Homo sapiens, UniProt P08581); assay: Kinase inhibition assay (33P transfer), c-Met; settings: Table 2, kinase inhibition class; read-out: Met-1
T7 construct: Kinases are expressed as either kinase domains or full length constructs; made in house
How it was run: as §1

[8] = target: T8, Flt-1 (Homo sapiens, UniProt P17948); assay: Kinase inhibition assay (33P transfer), Flt-1
T8 construct: Kinases are expressed as either kinase domains or full length constructs; made in house
How it was run: as §1

[9] = target: T9, Tek (Homo sapiens, UniProt Q02763); assay: Kinase inhibition assay (33P transfer), Tek; settings: read-out: Tek-1
T9 construct: Kinases are expressed as either kinase domains or full length constructs; made in house
How it was run: as §1

[10] = target: T10, Lyn (Homo sapiens, UniProt P07948); assay: Kinase inhibition assay (33P transfer), Lyn; settings: Table 6, Lyn-1 kinase inhibition class
T10 construct: Kinases are expressed as either kinase domains or full length constructs; made in house
How it was run: as §1

[11] = target: T1, PDGFRB; assay: Kinase inhibition assay (33P transfer), PDGFRB; settings: read-out: PDGFRB-1; remark: listed apart in the source
[12] = target: T11, ErbB2 (Homo sapiens, UniProt P04626); assay: Kinase inhibition assay (33P transfer), ErbB2; settings: read-out: ErbB2-2
T11 construct: Kinases are expressed as either kinase domains or full length constructs; made in house
How it was run: as §1

T4 sequence (P11362 22-822, species assumed): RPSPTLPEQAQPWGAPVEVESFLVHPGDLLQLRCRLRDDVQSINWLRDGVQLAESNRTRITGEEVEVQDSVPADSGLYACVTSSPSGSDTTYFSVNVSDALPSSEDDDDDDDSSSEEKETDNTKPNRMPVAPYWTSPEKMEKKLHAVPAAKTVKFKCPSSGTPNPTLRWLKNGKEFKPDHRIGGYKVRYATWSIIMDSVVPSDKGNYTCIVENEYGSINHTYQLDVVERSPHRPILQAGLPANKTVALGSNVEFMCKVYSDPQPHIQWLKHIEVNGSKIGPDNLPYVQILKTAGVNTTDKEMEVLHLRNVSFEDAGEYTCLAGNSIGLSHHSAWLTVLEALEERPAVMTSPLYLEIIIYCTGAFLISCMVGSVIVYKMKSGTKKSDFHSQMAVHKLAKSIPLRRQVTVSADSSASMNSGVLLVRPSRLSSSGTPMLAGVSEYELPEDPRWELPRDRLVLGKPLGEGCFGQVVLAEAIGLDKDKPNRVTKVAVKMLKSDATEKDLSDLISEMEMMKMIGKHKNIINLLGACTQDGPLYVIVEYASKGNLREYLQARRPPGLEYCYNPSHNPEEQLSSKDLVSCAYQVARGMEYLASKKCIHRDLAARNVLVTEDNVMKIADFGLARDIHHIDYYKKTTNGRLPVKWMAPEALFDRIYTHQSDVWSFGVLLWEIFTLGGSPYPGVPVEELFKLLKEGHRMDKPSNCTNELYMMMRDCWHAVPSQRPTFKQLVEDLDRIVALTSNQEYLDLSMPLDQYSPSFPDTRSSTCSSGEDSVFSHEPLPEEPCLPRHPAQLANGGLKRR
T9 sequence (Q02763 23-1124, species assumed): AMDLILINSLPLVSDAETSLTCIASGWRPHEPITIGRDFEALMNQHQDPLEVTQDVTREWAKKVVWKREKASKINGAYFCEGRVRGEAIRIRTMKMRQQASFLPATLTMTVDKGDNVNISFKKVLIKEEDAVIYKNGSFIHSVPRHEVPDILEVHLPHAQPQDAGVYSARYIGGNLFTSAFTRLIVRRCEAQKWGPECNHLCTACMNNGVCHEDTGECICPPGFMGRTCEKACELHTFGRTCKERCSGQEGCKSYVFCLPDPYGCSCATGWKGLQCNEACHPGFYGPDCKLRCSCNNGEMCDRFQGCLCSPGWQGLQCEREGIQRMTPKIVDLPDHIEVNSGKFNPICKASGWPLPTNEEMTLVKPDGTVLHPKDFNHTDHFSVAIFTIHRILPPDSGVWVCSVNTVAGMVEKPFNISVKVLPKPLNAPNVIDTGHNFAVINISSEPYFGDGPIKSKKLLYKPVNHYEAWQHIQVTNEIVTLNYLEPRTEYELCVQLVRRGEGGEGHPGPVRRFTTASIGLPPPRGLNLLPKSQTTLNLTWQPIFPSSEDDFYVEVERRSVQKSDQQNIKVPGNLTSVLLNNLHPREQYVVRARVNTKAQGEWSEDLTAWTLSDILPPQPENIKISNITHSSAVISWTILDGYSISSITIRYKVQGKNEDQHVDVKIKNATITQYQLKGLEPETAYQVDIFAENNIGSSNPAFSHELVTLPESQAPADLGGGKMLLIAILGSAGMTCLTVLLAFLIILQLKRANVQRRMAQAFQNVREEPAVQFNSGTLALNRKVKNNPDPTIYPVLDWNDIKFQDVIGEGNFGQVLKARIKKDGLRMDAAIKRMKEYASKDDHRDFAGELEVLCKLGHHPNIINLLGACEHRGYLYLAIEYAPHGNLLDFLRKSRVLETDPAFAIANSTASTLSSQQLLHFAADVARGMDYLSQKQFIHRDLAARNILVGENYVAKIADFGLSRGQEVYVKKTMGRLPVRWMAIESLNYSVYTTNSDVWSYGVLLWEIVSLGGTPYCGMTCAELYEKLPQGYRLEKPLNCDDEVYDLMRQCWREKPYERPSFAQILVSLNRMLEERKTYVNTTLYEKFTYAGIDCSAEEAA
T10 sequence (P07948 whole entry, species assumed, the tested form may be a part): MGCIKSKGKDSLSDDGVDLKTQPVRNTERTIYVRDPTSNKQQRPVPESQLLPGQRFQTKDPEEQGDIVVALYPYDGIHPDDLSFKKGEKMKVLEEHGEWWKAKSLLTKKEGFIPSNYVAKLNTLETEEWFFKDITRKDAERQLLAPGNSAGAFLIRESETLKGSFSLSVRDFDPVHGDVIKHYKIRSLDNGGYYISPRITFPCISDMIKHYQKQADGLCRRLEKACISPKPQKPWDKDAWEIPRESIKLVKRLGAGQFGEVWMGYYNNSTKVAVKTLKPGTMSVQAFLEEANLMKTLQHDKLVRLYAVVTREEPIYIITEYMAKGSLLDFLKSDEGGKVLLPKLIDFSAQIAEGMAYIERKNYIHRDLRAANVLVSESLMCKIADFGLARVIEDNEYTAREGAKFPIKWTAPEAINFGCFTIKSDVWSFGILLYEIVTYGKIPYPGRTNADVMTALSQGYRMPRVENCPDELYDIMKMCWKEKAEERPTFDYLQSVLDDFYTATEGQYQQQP
T8 sequence (P17948 27-1338, species assumed): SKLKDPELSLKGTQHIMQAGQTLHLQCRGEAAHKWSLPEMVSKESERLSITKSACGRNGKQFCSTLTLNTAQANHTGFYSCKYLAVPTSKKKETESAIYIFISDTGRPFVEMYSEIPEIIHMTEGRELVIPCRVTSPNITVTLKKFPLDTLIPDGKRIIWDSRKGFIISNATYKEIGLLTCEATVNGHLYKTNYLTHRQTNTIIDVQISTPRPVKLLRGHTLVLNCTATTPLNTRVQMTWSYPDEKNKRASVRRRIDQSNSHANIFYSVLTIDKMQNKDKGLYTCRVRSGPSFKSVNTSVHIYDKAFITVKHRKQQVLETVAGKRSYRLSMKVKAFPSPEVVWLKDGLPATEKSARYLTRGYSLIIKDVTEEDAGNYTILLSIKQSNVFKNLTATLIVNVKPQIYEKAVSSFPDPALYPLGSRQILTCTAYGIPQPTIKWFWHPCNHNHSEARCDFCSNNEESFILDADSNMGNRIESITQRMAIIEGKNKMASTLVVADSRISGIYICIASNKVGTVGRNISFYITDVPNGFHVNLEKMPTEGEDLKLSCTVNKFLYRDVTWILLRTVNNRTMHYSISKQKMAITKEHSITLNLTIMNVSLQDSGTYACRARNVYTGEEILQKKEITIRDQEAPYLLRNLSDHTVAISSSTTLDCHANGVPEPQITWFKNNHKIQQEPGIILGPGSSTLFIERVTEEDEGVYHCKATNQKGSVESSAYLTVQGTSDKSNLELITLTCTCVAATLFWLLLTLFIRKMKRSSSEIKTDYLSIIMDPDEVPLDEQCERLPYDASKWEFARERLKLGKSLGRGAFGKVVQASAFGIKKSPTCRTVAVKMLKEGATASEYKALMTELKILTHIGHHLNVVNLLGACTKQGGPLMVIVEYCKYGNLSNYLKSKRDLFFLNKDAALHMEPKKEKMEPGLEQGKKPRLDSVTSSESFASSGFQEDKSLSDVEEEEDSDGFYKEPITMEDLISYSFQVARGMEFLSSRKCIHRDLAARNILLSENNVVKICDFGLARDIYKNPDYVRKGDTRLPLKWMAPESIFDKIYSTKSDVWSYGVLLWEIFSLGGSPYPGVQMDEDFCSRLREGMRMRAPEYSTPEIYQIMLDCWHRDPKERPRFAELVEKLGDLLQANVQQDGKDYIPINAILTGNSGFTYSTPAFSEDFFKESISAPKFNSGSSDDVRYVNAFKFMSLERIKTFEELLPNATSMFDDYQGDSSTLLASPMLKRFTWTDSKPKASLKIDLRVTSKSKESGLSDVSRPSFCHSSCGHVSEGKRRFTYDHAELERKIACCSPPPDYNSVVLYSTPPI
T3 sequence (P35968 20-1356, species assumed): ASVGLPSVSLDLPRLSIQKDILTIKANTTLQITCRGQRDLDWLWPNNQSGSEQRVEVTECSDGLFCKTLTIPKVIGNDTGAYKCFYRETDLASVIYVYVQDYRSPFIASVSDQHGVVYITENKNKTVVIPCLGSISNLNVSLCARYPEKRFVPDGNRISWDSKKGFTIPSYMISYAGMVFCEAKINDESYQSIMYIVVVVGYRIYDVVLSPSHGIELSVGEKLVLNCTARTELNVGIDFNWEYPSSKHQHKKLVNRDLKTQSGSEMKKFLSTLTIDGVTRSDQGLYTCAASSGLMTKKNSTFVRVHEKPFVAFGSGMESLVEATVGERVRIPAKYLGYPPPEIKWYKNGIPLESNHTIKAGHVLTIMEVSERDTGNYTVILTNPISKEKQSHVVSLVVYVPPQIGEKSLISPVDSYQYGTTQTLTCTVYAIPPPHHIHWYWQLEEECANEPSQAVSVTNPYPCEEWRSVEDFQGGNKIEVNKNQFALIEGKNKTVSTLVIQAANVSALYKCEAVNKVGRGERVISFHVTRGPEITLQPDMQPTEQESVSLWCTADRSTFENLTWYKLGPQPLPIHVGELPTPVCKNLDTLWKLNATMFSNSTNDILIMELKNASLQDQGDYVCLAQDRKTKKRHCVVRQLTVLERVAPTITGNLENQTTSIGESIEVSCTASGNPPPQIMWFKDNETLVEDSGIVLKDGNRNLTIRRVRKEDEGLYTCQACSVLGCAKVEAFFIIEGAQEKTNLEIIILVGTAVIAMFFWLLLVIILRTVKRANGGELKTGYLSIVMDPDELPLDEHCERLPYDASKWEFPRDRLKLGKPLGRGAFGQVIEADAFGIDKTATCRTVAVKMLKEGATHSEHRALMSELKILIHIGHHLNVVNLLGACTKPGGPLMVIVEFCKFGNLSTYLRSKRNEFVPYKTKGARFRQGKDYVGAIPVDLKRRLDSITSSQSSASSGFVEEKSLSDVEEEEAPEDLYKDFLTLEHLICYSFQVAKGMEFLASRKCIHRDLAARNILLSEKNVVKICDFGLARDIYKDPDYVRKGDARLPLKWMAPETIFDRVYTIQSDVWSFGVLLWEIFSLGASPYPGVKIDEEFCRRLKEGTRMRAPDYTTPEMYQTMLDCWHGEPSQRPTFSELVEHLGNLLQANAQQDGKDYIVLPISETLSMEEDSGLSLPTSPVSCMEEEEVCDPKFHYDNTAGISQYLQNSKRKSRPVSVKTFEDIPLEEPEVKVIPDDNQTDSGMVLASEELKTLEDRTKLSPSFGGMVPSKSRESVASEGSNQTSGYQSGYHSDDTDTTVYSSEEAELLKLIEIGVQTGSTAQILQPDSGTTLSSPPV

IC50 [1] [µM]	IC50 [2] [µM]	IC50 [3] [µM]	IC50 [4] [µM]	IC50 [5] [µM]	IC50 [6] [µM]	IC50 [7] [µM]	IC50 [8] [µM]	IC50 [9] [µM]	IC50 [10] [µM]	IC50 [11] [µM]	IC50 [12] [µM]	Compound
0.794 to 4.76	6.95 to 8.93	< 0.794	< 0.794	0.794 to 4.76	> 8.93	0.794 to 4.76	0.794 to 4.76	0.794 to 4.76	< 0.794			COc1cc(Nc2ncnc(N(c3ccc(Cl)cc3)c3nc4ccccc4[nH]3)n2)cc(OC)c1OC [Compound 374]
1.15 to 6.93	> 13	< 1.15	< 1.15	6.93 to 10.1	1.15 to 6.93	1.15 to 6.93	< 1.15	1.15 to 6.93	10.1 to 13			NC(=O)c1cccc(Nc2ncnc(-n3c(N)nc4ccccc43)n2)c1 [Compound 395]
1.15 to 6.93	6.93 to 10.1	< 1.15	< 1.15	1.15 to 6.93	< 1.15	1.15 to 6.93	< 1.15	1.15 to 6.93	1.15 to 6.93			NC(=O)c1ccc(Nc2ncnc(-n3c(N)nc4ccccc43)n2)cc1 [Compound 396]
	9.79 to 12.6	< 1.12		1.12 to 6.72	1.12 to 6.72	1.12 to 6.72		> 12.6	1.12 to 6.72			COc1cc(Nc2ncnc(Nc3cc(C)[nH]n3)n2)cc(OC)c1OC [Compound 88]
	> 12.2	1.09 to 6.51		> 12.2	> 12.2	> 12.2		> 12.2	> 12.2			COc1cccc(-c2ncnc(Nc3cc(OC)c(OC)c(OC)c3)n2)c1 [Compound 232]
< 1.02	> 11.4	< 1.02	< 1.02	1.02 to 6.1	> 11.4	> 11.4	< 1.02	> 11.4	1.02 to 6.1			COc1cc(Nc2ncnc(-c3c(O)[nH]c4ccccc34)n2)cc(OC)c1OC [Compound 380]
< 0.827	> 9.31	< 0.827	< 0.827	> 9.31	> 9.31	> 9.31	< 0.827	> 9.31	0.827 to 4.96			COc1cc(Nc2ncnc(-n3c(Nc4ccc(C)cc4)nc4ccccc43)n2)cc(OC)c1OC [Compound 385]
0.782 to 4.69	> 8.8	0.782 to 4.69	4.69 to 6.84	> 8.8	> 8.8	> 8.8	> 8.8	> 8.8	0.782 to 4.69			COc1cc(Nc2ncnc(-n3c(Nc4ccc(C(C)C)cc4)nc4ccccc43)n2)cc(OC)c1OC [Compound 388]
0.827 to 4.96	> 9.31	< 0.827	< 0.827	> 9.31	> 9.31	> 9.31	< 0.827	> 9.31	> 9.31			COc1cc(Nc2ncnc(-n3c(Nc4cccc(C)c4)nc4ccccc43)n2)cc(OC)c1OC [Compound 386]
8.49 to 10.9	> 10.9	0.97 to 5.82	> 10.9	5.82 to 8.49	> 10.9	> 10.9	> 10.9	> 10.9	0.97 to 5.82			COc1cc(Nc2ncnc(-c3ccnc(NCCCO)c3)n2)cc(OC)c1OC [Compound 180]
6.33 to 9.23	> 11.9	< 1.05	1.05 to 6.33	1.05 to 6.33	1.05 to 6.33	< 1.05	1.05 to 6.33	> 11.9	< 1.05			COc1cc(Nc2ncnc(Nc3cc(-c4ccco4)n[nH]3)n2)cc(OC)c1 [Compound 365]
		0.758 to 4.55			4.55 to 6.63	> 8.53		4.55 to 6.63		< 0.758	4.55 to 6.63	COC(=O)c1cccc(Nc2nc3ccccc3n2-c2ncnc(Nc3cc(OC)c(OC)c(OC)c3)n2)c1 [Compound 383]
